Experimental data: patent US9345703B2, “Kappa opioid receptor effectors and uses thereof” (University of Kansas, priority 2011, dated 2016)

Experiments:
MOR = MOR (Homo sapiens, UniProt P35372); test: High content imaging β-arrestin translocation assay, MOR antagonist (MOR HCS); format: cell-based; conditions: antagonist; average; read-out: Potency, Antitarget MOR HCS
Text: In this campaign, two assay platforms were employed to evaluate KOR activity and selectivity: the KOR1 DISCOVERX β-Arrestin […] assay and an imaging based β-arrestin translocation assay for confirmatory and selectivity assays. The KOR1 DISCOVERX β-Arrestin […] assay is a commercial platform for direct measurement of GPCR (G protein-coupled receptor) activation by detection of β-Arrestin binding to the KOR. […] In cells that stably express these fusion proteins, ligand stimulation results in the recruitment of β-Arrestin by the GPCR. This interaction encourages the complementation of the two β-galactosidase fragments resulting in the formation of a functional enzyme that converts substrate in the assay medium to a detectable signal. The imaging based high-content β-arrestin translocation assay is based upon the redistribution of β-Arrestin linked to green fluorescent protein (GFP) to the cell surface and detection (Barak, et al. (1997) J. Biol. Chem. 272:27497-27500).
Initially, a portion (approximately 290,000 compounds) of the MLSMR compound collection was tested in the KOR1 DISCOVERX β-arrestin primary kappa opioid (KOP) agonist and antagonist screens (PUBCHEM AID 1777 and 1778, respectively) at a single concentration point (10 μM). […] These compounds were concurrently tested in a β-galactosidase counterscreen assay (PUBCHEM AID 1966) to assess the possibility that these compounds might inhibit the reporting enzyme. […] The KOR:DOR:MOR selectivity of the compounds was determined using the analogous β-arrestin translocation assays for the DOR (PUBCHEM AID 2370 and 2357, for agonists and antagonist, respectively) and the MOR (PUBCHEM AID 2352 and 2420, for agonists and antagonists, respectively).

DAT = DAT (Homo sapiens, UniProt Q01959); test: PDSP radioligand binding assay; conditions: Table 10
Procedure: The broader selectivity of compound 1{3} was tested against additional targets and basic pharmacological properties were assessed. […] The compound was initially screened in radioligand binding assays at a constant concentration (10 μM) to identify possible activity of the compound. Results showing significant activity in the initial screen were selected for Ki determinations.
As a representative of the Chemotype II series, the MLPCN probe molecule 2{8} was subjected to a binding assay panel of 44 GPCR and other molecular targets by the Pyschoactive Drug Screening Program (PDSP) (Table 10). The compound was initially screened in a radioligand binding assay at a constant concentration (10 μM) to identify possible activity of the compound. Results showing significant activity in the initial screen were selected for Ki determinations.

Sequence of DAT (Q01959 whole entry, species assumed): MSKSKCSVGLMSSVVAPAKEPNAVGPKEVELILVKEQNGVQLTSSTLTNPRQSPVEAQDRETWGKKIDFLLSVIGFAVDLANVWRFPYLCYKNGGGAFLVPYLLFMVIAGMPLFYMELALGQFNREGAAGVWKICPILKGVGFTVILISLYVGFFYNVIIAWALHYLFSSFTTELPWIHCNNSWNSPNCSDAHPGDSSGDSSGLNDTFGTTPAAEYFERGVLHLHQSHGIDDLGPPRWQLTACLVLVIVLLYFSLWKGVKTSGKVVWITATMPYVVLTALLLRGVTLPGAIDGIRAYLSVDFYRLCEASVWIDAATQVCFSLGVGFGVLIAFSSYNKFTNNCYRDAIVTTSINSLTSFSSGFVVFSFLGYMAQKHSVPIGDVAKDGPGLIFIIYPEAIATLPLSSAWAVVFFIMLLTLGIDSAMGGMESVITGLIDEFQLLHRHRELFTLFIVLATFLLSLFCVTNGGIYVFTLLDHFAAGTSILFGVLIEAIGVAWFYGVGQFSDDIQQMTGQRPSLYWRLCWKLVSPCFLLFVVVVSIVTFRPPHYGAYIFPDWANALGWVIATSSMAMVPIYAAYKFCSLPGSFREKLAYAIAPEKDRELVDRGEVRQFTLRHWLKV
Sequence of MOR (P35372 whole entry, the tested form may be a part): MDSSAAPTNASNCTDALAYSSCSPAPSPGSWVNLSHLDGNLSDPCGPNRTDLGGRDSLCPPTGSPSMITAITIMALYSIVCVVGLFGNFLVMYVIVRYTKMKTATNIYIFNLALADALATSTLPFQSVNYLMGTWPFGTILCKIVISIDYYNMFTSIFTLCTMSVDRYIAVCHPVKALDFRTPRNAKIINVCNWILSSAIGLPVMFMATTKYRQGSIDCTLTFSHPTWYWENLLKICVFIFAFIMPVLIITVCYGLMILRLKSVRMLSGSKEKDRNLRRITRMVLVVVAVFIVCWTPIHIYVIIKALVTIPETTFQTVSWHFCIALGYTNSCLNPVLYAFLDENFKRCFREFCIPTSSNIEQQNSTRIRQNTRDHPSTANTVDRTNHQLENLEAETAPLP

Structure (SMILES) | IC50 (MOR) [µM] | Ki (DAT) [µM]
COc1ccc(N2CCN(CCCNC(=O)Cn3c(=O)c4cccn4c4c(C)ccnc43)CC2)cc1 [Compound 1{3}, N-(3-(4-(4-Methoxyphenyl)piperazin-1-yl)propyl)-2-(1-methyl-6-oxopyrido[2,3-e]pyrrolo[1,2-a]pyrazin-5(6H)-yl)acetamide] | > 32 | –
Clc1ccc(CSc2nnc(-c3ccccn3)n2Cc2ccco2)cc1Cl [Compound 2{8}] | – | > 10
